Results from patent publication US20240148836A1, “COMPOSITION FOR TREATING CANCER EXPRESSING SPARC” (SEOUL NATIONAL UNIVERSITY R&DB FOUNDATION, priority 2021, published 2024).
“Also recorded” adds a separate entry of the source.

Columns and labels:
[1] = test system: U87MG cells; assay: Cellular cytotoxicity, Cell Counting Kit-8 (CCK-8) assay; format: cell-based, Human; settings: 72 h
Procedure: (§1) Human glioma cells (U87MG) were obtained from American Type Culture Collection (ATCC; Manassas, VA, USA). Low SPARC-expressing U87MG cells, U87MG-shSPARC, were established from a previous study.
(§2) (1) U87MG and U87MG-shSPARC cells were added to 96-well plates (4000 cells/well). […] Cell viability was analyzed using a Cell Counting Kit-8 (CCK-8, Dojindo Molecular Technologies, Tokyo, Japan) assay according to the manufacturer's protocols.
(2) To execute cellular cytotoxicity experiments of HSA bound with CDDPs in different numbers, U87MG cells were added to a 96-well plate (4000 cells/well) and incubated overnight. […] Cell viability was analyzed using a Cell Counting Kit-8 (CCK-8, Dojindo Molecular Technologies, Tokyo, Japan) assay according to the manufacturer's protocols.

[2] = test system: U87MG-shSPARC cells; assay: as above; format: cell-based, Human; settings: 72 h, CCK-8, n=5, Table 1
Procedure: as §1, §2

[3] = test system: U87MG tumor xenograft; assay: Xenograft tumor model, anti-tumor effect in vivo; parameters: species or system BALB/c nude mice; settings: for weight of mice: xenograft tumor models (U87MG and U87MG-shSPARC), FIG. 5C, 5D, 3 mg/kg IV 7 times
Procedure: BALB/c nude mice (5-week-old, male) were purchased from Orient Bio Inc. (Seongnam, Korea). U87MG or U87MG-shSPARC cells (2×10^6 cells/site) were injected subcutaneously into the right lower flanks.
(§3) The tumor size and body weight of each mouse were recorded every other day. Tumor volume was calculated using the equation V=0.5×L×W^2, where L represents tumor length and W represents tumor width.

[4] = test system: U87MG-shSPARC tumor xenograft; assay: Xenograft tumor model, anti-tumor effect in vivo; parameters: species or system BALB/c nude mice
Procedure: All animal studies were performed under approval from the Seoul National University Institutional Animal Care and Use Committee (IACUC No. 18-0231, 1 Nov. 2018). BALB/c nude mice (5-week-old, male) were purchased from Orient Bio Inc. (Seongnam, Korea). U87MG or U87MG-shSPARC cells (2×10^6 cells/site) were injected subcutaneously into the right lower flanks.
as §3

[5] = test system: U87MG tumors; assay: Tumor CDDP accumulation using ICP-MS; format: in vivo, mice; settings: 72 h after last of 7 IV doses, FIG. 6B
Procedure: For tumor CDDP distribution, U87MG or U87MG-shSPARC cells (2×10^6 cells/site) were injected subcutaneously into the right lower flanks. […] At 72 h after the last IV administration (15 days after first administration), mice were euthanized, and the tumor was acquired.
All samples (organs, blood, and tumors) were lyophilized and we analyzed the amount of CDDP using the ICP-MS (NexION 350; Perkin-Elmer, Waltham, MA, USA) installed at the National Center for Inter-university Research Facilities (NCIRF) at Seoul National University.

[6] = Biosafety: body weight and blood biochemical analysis; format: in vivo, mice
Procedure: After centrifugation at 4° C. for 20 min, the plasma was collected for blood biochemical analysis. The concentrations of AST, ALT, BUN, and creatinine were analyzed at DKKorea (Seoul, Korea).

[7] = Histopathology examination, H&E staining; format: in vivo; settings: drug-treated mice, FIG. 7B
From the text: The kidney, liver, and spleen of the drug-treated mice were acquired and fixed with 4% paraformaldehyde. Tissues were embedded in paraffin and stained with hematoxylin and eosin (H&E). H&E staining images were acquired using an optical microscope (Olympus BX43, Tokyo, Japan).

[8] = TUNEL assay of kidney sections; format: in vivo, mice; settings: FIGS. 8A and 8B
From the text: The tumor and kidney were fixed with 4% paraformaldehyde and embedded in paraffin, which was further cut into […] sections. To evaluate cellular apoptosis in kidney, a kidney section was stained using a TUNEL assay kit-HRP-DAB (ab206386; abcam, Cambridge, UK) according to the manufacturer's protocols.

N.N.[Cl][Pt][Cl] [CDDP, cis-diamine dichloroplatinum (II)]
IC50 ([1]; CCK-8, n=5, Table 1): 2.54 ± 0.135 µM
IC50 ([1]; CCK-8, n=6, Table 2 (CDDP number-dependent HSA)): 4.72 ± 0.11 µM
IC50 [2]: 2650 ± 130 nM
survival rate ([3]; U87MG tumor model vs PBS group, FIG. 5E): prolonged survival time than the PBS group
tumor growth ([3]; U87MG tumor model, 12 days after first drug treatment, 3 mg/kg CDDP equivalent IV every other day 7 times, p<0.001): significantly reduced tumor growth than the PBS group
Median survival ([3]; U87MG tumor xenograft model, 3 mg/kg CDDP equivalent IV 7 times): 22 days
weight of mice [3]: significantly decreased
weight of mice ([3]; listed as CCDP): significant weight loss compared to the group treated with PBS
survival rate ([4]; U87MG-shSPARC tumor model vs PBS group, FIG. 5F): prolonged survival
tumor growth ([4]; U87MG-shSPARC tumor model, 26 days after first drug treatment, 3 mg/kg CDDP equivalent IV every other day 7 times): significantly reduced tumor growth than the PBS group
Median survival ([4]; U87MG-shSPARC tumor xenograft model, 3 mg/kg CDDP equivalent IV 7 times): 42 days
accumulation of CDDP, U87MG vs U87MG-shSPARC tumors [5]: no difference in CDDP accumulation between U87MG and U87MG-shSPARC
body weight ([6]; 72 h after final treatment (every other day, seven times), FIG. 7A): significant body weight loss compared to the PBS and HSA-CDDP groups
blood urea nitrogen (BUN) ([6]; kidney function, 72 h after final treatment): increased
H&E staining of kidney tissue [7]: tubular degeneration; also recorded: extensive epithelial vacuolization; also recorded: degeneration of renal tubules; also recorded: vacuolation of epithelial cells
TUNEL positive cells in kidney [8]: TUNEL positive cells were only identified in the kidney of CDDP-treated mice
